Results as given in patent US9624211B2, “Anti-cancer compounds” (Board of Regents, The University of Texas System, priority 2013, dated 2017).

These compounds were tested against T1, Skp1/Skp2 binding interaction (Homo sapiens, UniProt Q13309) (assay: In vitro Skp2-Skp1 binding assay (GST pull-down)). Conditions: amount of intact Skp1/Skp2 remaining after treatment, quantified on western blot/images.
T1 construct: made in house; host or cells: GST-Skp1: E. coli BL21; Skp2: in vitro translation
T1 sequence (Q13309 whole entry): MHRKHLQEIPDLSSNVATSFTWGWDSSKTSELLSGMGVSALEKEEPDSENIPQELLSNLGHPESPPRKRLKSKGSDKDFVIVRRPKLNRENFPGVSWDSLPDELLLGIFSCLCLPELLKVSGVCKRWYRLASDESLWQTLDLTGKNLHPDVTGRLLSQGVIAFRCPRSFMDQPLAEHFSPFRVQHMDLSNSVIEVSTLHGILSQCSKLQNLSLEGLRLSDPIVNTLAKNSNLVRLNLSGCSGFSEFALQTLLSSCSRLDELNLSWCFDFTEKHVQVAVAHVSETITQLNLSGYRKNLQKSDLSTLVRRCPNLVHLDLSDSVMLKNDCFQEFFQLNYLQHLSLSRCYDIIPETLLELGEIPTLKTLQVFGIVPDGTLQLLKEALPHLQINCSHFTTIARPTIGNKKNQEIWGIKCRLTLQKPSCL
Protocol: For in vitro GST-Skp1 and Skp2 interaction, GST-Skp1 proteins purified from the bacterial lysates of BL21 competent cells transformed with pGEX-4X1-Skp1 using the Glutathione-Agarose beads according to the manufacturer's standard procedures. The GST-Skp1 proteins bound to glutathione Sepharose beads (Amersham Biosciences) were then incubated with the in vitro translated [35^S]-Skp2 for 2 hours at 4° C. in the interaction buffer with or without compound #25 (20 mM HEPES, PH 7.9, 150 mM KCl. 5 mM EDTA, 0.5 mM DTT, 0.1% (v/v) Nonidet p-40, 0.1% (w/v) BSA, 1 mM PMSF, and 10% Glycerol), washed by the NETN buffer (20 mM Tris, pH 8.0, 100 mM NaCl, 6 mM MgCl2, 1 mM EDTA, 0.5% Nonidet P-40, 1 mM DTT, 8% glycerol, 1 mM PMSF) 4 times, and subjected to 8% SDS-PAGE, followed by autoradiography.
Below are the original lead compound and 11 similar compounds that were tested for their ability to block the Skp1/Skp2 binding interaction in an in vitro assay. The quantification was made on western blot/images, and the percentages represent the amount of intact Skp1/Skp2 remaining after treatment. In vitro binding assays were performed. For in vitro GST-Skp1 and Skp2 interaction, GST-Skp1 proteins purified from the bacterial lysates of BL21 competent cells transformed with pGEX-4X1-Skp1 using the Glutathione-Agarose beads were performed according to the manufacturer's standard procedures. The GST-Skp1 proteins bound to glutathione Sepharose beads (Amersham Biosciences) were then incubated with the in vitro translated [35^S]-Skp2 for 2 hours at 4° C. in the interaction buffer with or without lead compound and 11 similar compounds (20 mM HEPES, PH 7.9, 150 mM KCl. 5 mM EDTA, 0.5 mM DTT, 0.1% (v/v) Nonidet p-40, 0.1% (w/v) BSA, 1 mM PMSF, and 10% Glycerol), washed by the NETN buffer (20 mM Tris, pH 8.0, 100 mM NaCl, 6 mM MgCl2, 1 mM EDTA, 0.5% Nonidet P-40, 1 mM DTT, 8% glycerol, 1 mM PMSF) 4 times, and subjected to 8% SDS-PAGE, followed by autoradiography. The data presented in Table 1 below was obtained using the Skp1/Skp2 binding affinity assay. The quantification percentage results listed below are based on the western blot results.
With `Cn1c(-c2cc3ccc(O)c(CN4CCCC4)c3oc2=O)nc2ccccc21` [compound 343] the “Normalized w/ vehicle treatment” value was 35%.
In the case of `CCc1cc2c(=O)c(-c3nc4ccccc4s3)coc2c(CN2CCOCC2)c1O` [compound 354], the “Normalized w/ vehicle treatment” value was 10%.
With `CCc1cc2c(=O)c(-c3nc4ccccc4s3)coc2cc1O` [compound 378] the “Normalized w/ vehicle treatment” value was 100% (no effect).
For `Cn1c(-c2cc3ccc(O)c(CN4CCCCC4)c3oc2=O)nc2ccccc21` [compound 435], the “Normalized w/ vehicle treatment” value was 40%.
For `Cn1c(-c2cc3ccc(O)c(CN4CCCCCC4)c3oc2=O)nc2ccccc21` [compound 580], the “Normalized w/ vehicle treatment” value was 8%.
With `Nc1oc2cc(O)ccc2c(=O)c1-c1nc2ccccc2s1` [compound 649] the “Normalized w/ vehicle treatment” value was 8%.
For `CCc1cc2c(=O)c(-c3nc4ccccc4s3)coc2c(CN(C)C)c1O` [compound 653], the “Normalized w/ vehicle treatment” value was 8%.
With `O=c1c(-c2nc3ccccc3s2)coc2cc(O)ccc12` [compound 684] the “Normalized w/ vehicle treatment” value was 75%.
In the case of `O=c1oc2c(CN(CCO)CCO)c(O)ccc2cc1-c1nc2ccccc2s1` [compound 719], the “Normalized w/ vehicle treatment” value was 80%.
For `CN(C)Cc1c(O)ccc2cc(-c3nc4ccccc4o3)c(=O)oc12` [compound 820], the “Normalized w/ vehicle treatment” value was 10%.
In the case of `COc1ccccc1C(=O)Oc1ccc2c(=O)c(-c3nc4ccccc4s3)coc2c1` [compound 837], the “Normalized w/ vehicle treatment” value was 8%.

The compounds below were run on p27 and p21 protein expression (assay: Immunoblotting of SCF substrates in prostate cancer cells). Conditions: LNCaP prostate cancer cells.
Assay type: cell-based
From the text: Cells were lysed with RIPA buffer in the presence of protease inhibitor cocktail (Roche). The following antibodies were used for immunoblotting analysis: anti-Skp2 (Invitrogen), anti-Xpress (Invitrogen), anti-p27 (BD transduction laboratories), anti-p21 (Santa Cruz), anti-β-actin (Sigma), anti-α-tubulin (Sigma), anti-phospho-Akt (Thr308) (Cell Signaling), anti-phospho-Akt (Ser473) (Cell Signaling), and anti-HA (Convance). For immunohistochemistry, tissues were fixed in 10% formalin and embedded in paraffin in accordance with standard procedures. Sections were stained with anti-Skp2 (Invitrogen), anti-p27 (Epitomics), anti-phosphoAkt (SerS473) (Cell signaling), anti-Glut1 (Abcam), and anti-Ki67 (Abcam). TUNEL staining was performed by using in situ cell death detection kit-POD (Roche).
In the case of `NS(=O)(=O)OC[C@@H]1C[C@@H](n2ccc3c(N[C@H]4CCc5ccccc54)ncnc32)C[C@@H]1O` [MLN4924, reference compound], the “heat shock protein 27 (Hsp27) expression” value was “induced expression”.

Same assay, conditions: Skp2, Fbw7 and β-TrCP substrates, FIGS. 3E and 11A
`NS(=O)(=O)OC[C@@H]1C[C@@H](n2ccc3c(N[C@H]4CCc5ccccc54)ncnc32)C[C@@H]1O` [MLN4924, reference compound] was tested, and the “stabilization/induction of SCF substrates” value was “globally induced”.

These compounds were tested against T2, FBW7 (Homo sapiens, UniProt Q969H0) (assay: In vivo ubiquitination assay, FBW7 substrates). Conditions: in the presence of proteasome inhibitor.
T2 construct: expressed in transfected cells; host or cells: 293T
T2 sequence (Q969H0 whole entry, species assumed): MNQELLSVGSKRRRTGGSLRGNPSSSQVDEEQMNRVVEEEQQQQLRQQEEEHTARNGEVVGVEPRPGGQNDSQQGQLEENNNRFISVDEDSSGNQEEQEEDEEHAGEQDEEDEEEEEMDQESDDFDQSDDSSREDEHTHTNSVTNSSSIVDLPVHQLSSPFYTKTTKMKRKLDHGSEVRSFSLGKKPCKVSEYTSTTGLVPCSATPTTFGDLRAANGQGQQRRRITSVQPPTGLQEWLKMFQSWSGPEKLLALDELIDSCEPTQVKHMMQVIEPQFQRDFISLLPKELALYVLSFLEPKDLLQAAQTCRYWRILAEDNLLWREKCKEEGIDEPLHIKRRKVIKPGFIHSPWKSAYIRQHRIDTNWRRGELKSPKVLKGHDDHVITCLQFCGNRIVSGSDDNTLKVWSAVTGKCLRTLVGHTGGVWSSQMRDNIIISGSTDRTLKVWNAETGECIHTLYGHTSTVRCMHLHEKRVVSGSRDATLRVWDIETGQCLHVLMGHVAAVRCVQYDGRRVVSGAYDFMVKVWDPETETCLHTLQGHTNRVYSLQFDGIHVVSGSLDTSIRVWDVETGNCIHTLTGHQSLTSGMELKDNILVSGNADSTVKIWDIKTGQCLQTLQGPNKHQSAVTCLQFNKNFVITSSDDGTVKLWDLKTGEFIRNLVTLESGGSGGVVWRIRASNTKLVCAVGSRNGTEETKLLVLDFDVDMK
Assay type: cell-based
Protocol: In vivo and in vitro ubiquitination assays were performed as described with modification (Lin et al., 2009; Yang et al., 2009). For in vitro ubiquitination assay, recombinant GST-Akt proteins were expressed, purified and eluted from the bacterial lysates of BL21 competent cells. Flag-Skp2 SCF complex were expressed in 293T cells, immunoprecipitated by anti-Flag antibody, and eluted from Protein A/G beads using Flag peptides according to manufacturers' standard procedures. Purified GST-Akt and Flag-SCF proteins were incubated for 3 h at 37° C. in the absence and presence of Skp2 inhibitor. After incubation, protein mixtures were diluted in E1A Buffer and the supernatant fluid was precleared with Protein A/G beads for 1 h, and immunoprecipitated overnight with anti-Flag antibody, after which Protein A/G beads were added for an additional 1 h. Beads were washed 4 times with E1A Buffer. Proteins were eluted in SDS-sample buffer and subjected to immunoblotting analysis. For in vivo ubiquitination assay, 293T cells were transfected with the indicated plasmids and cultured in the absence or presence of Skp2 inhibitor for 48 h. 6 h before harvest, cells were cultured in the presence of MG132. After cell harvest, cells were lysed by the denatured buffer (6M guanidine-HCl, 0.1M Na2HPO4/NaH2PO4, 10 mM imidazole). […]
With `NS(=O)(=O)OC[C@@H]1C[C@@H](n2ccc3c(N[C@H]4CCc5ccccc54)ncnc32)C[C@@H]1O` [MLN4924, reference compound] the “FBW7-mediated ubiquitination (c-Jun, MCL-1)” value was “profoundly attenuated”.
